Consider two compounds from publication PMC3569412, “In Vivo Imaging with Fluorescent Smart Probes to Assess Treatment Strategies for Acute Pancreatitis” (PLoS ONE, 2013).

The target in one test is h cathepsin B (Homo sapiens, UniProt P07858). The test is described as follows: protease selectivity panel, enzyme activity assay. Type of test: biochemical. The conditions noted are these: 1 h pre-incubation RT. The source says: (§1) The three drug-like compounds tested in the optical molecular imaging model were characterized for selectivity against a panel of recombinant proteases available at Novartis. The biochemical enzyme activity assays were based on the cleavage of peptidic substrates that are fluorescently labeled. In case of rhodamine-110 label fluorescence intensity and in case of PT14 label fluorescence lifetime was used as readout. The effect of the compound on the enzymatic activity was obtained from the linear part of the substrate cleavage progress curve at substrate concentrations well below KM, typically at 1 µM. All enzyme assays were conducted in 384-well plates with a final assay volume of 25 µl. Enzyme and compound (11 different concentrations from 100 µM to 0.0003 µM) were pre-incubated for one hour at room temperature (RT). Subsequently substrate was added and incubated for 1 h at RT prior to measurement.

The target of the next test is h cathepsin C (Homo sapiens, UniProt P53634). The test is described as follows: protease selectivity panel, enzyme activity assay. It is filed as biochemical. The settings on record: 1 h pre-incubation RT.
Sequence of h cathepsin C (P53634 25-463): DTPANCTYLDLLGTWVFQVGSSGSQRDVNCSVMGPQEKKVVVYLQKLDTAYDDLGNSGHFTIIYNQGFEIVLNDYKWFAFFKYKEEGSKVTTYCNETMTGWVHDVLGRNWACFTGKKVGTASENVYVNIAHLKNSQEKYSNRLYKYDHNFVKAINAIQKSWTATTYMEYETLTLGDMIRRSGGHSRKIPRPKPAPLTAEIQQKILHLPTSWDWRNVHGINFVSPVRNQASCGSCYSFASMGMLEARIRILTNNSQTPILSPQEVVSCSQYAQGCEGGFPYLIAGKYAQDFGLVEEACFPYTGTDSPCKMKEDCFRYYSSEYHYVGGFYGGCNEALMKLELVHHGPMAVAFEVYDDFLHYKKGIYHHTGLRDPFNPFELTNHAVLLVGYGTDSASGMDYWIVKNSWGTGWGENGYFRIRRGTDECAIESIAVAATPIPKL
Source text: as §1

The target in a further test is h cathepsin G (Homo sapiens, UniProt P08311). The test is described as follows: protease selectivity panel, enzyme activity assay. It is filed as biochemical. The settings on record: 1 h pre-incubation RT.
Sequence of h cathepsin G (P08311 21-255): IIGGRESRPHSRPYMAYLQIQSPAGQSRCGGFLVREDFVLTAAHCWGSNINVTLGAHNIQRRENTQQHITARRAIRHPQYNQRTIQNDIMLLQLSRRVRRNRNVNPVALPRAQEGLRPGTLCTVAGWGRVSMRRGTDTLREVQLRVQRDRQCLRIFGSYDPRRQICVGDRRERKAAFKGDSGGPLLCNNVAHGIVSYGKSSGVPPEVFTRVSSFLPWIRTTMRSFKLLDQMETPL
Source text: as §1

The next test has as its target h cathepsin K (Homo sapiens, UniProt P43235). Put plainly: protease selectivity panel, enzyme activity assay. Type of test: biochemical. The settings on record: 1 h pre-incubation RT.
Source text: as §1

In a further test the target is h cathepsin L (Homo sapiens, UniProt P07711). Put plainly: protease selectivity panel, enzyme activity assay. The conditions noted are these: 1 h pre-incubation RT. It is filed as biochemical.
Sequence of h cathepsin L (P07711 114-333): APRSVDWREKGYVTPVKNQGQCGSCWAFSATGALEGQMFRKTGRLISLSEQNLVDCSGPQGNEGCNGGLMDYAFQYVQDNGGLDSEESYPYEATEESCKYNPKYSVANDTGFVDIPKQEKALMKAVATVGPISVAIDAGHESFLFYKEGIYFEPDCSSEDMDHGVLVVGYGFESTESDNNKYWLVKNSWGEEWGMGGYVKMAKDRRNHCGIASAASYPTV
Source text: as §1

A further test has as its target h cathepsin S (Homo sapiens, UniProt P25774). The test is described as follows: protease selectivity panel, enzyme activity assay. It is filed as biochemical. The settings on record: 1 h pre-incubation RT.
Source text: as §1

A further test concerns the target h cationic trypsin (Homo sapiens, UniProt P07477). The test is described as follows: protease selectivity panel, enzyme activity assay. It is filed as biochemical. The settings on record: 1 h pre-incubation RT.
Source text: as §1

Another test concerns the target h chymase (Homo sapiens, UniProt P23946). Put plainly: protease selectivity panel, enzyme activity assay. Type of test: biochemical. The settings on record: 1 h pre-incubation RT.
Source text: as §1

Another test deals with h factor VIIa (Homo sapiens, UniProt P08709). The test is described as follows: protease selectivity panel, enzyme activity assay. The conditions noted are these: 1 h pre-incubation RT. It is filed as biochemical.
Sequence of h factor VIIa (P08709 213-466 limits assumed): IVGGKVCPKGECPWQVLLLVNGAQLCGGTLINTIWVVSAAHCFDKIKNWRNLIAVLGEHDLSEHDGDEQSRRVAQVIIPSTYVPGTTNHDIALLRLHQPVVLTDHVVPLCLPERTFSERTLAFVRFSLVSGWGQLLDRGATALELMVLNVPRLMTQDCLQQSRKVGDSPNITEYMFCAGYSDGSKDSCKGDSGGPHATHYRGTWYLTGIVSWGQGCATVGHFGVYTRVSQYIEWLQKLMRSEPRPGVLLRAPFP
Sequence of h factor VIIa (P08709 61-212 partner limits assumed): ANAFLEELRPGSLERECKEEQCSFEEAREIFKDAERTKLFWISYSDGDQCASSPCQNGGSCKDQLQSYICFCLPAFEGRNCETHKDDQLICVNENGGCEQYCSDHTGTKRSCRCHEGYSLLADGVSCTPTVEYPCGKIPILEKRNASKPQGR
Source text: as §1

For a further test, the target named is h factor XIIa (Homo sapiens, UniProt P00748). Put plainly: protease selectivity panel, enzyme activity assay. The settings on record: 1 h pre-incubation RT. Type of test: biochemical.
Sequence of h factor XIIa (P00748 373-615 limits assumed): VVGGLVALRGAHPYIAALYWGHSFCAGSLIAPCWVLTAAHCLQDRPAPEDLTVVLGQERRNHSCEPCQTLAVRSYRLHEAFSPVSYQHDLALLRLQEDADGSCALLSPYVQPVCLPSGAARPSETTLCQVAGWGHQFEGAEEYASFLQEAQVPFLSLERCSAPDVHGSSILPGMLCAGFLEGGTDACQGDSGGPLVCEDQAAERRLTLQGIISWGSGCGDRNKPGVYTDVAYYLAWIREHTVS
Source text: as §1

Another test addresses h factor XIa (Homo sapiens, UniProt P03951). The test is described as follows: protease selectivity panel, enzyme activity assay. It is filed as biochemical. The conditions noted are these: 1 h pre-incubation RT.
Source text: as §1

Another test deals with h factor Xa (Homo sapiens, UniProt P00742). The test is described as follows: protease selectivity panel, enzyme activity assay. It is filed as biochemical. The settings on record: 1 h pre-incubation RT.
Sequence of h factor Xa (P00742 235-488 limits assumed): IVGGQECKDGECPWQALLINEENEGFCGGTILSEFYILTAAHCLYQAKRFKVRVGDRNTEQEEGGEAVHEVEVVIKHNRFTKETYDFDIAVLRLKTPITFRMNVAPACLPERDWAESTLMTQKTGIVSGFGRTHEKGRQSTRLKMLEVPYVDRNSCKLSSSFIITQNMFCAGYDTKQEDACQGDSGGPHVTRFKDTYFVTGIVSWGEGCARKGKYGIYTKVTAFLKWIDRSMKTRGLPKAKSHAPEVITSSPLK
Sequence of h factor Xa (P00742 41-179 partner limits assumed): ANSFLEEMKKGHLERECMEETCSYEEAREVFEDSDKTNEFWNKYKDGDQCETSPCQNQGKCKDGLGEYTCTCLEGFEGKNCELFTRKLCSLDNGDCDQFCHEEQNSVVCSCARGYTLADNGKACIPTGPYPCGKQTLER
Source text: as §1

The target of the next test is h kallikrein 1 (Homo sapiens, UniProt P06870). Put plainly: protease selectivity panel, enzyme activity assay. The settings on record: 1 h pre-incubation RT. It is filed as biochemical.
Sequence of h kallikrein 1 (P06870 25-262): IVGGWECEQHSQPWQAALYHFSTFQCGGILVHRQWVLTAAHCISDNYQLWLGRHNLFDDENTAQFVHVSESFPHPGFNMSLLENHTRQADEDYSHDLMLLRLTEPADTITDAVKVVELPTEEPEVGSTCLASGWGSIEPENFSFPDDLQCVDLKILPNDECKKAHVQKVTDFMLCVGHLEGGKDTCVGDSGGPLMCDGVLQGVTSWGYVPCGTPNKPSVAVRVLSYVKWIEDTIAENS
Source text: as §1

In the next test the target is h kallikrein 5 (Homo sapiens, UniProt Q9Y337). The test is described as follows: protease selectivity panel, enzyme activity assay. It is filed as biochemical. The conditions noted are these: 1 h pre-incubation RT.
Sequence of h kallikrein 5 (Q9Y337 23-293): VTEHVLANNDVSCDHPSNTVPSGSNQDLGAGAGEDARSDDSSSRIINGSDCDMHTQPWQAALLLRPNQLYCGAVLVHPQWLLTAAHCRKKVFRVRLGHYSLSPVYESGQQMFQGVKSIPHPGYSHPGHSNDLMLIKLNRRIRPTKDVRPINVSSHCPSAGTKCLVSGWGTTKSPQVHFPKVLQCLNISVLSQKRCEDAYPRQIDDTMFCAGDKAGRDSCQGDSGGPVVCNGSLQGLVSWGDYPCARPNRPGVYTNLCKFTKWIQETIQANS
Source text: as §1

In another test the target is h kallikrein 7 (Homo sapiens, UniProt P49862). The test is described as follows: protease selectivity panel, enzyme activity assay. It is filed as biochemical. The settings on record: 1 h pre-incubation RT.
Sequence of h kallikrein 7 (P49862 30-253): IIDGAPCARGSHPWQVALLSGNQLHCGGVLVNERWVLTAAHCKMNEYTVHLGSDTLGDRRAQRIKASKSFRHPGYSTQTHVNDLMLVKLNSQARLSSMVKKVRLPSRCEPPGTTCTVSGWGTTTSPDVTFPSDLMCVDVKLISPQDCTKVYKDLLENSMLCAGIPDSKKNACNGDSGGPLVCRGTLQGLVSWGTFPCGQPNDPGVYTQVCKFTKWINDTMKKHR
Source text: as §1

The next test has as its target h matriptase (Homo sapiens, UniProt Q9Y5Y6). The test is described as follows: protease selectivity panel, enzyme activity assay. It is filed as biochemical. The settings on record: 1 h pre-incubation RT.
Source text: as §1

In another test the target is h neutrophil elastase (Homo sapiens, UniProt P08246). The test is described as follows: protease selectivity panel, enzyme activity assay. It is filed as biochemical. The conditions noted are these: 1 h pre-incubation RT.
Sequence of h neutrophil elastase (P08246 30-267): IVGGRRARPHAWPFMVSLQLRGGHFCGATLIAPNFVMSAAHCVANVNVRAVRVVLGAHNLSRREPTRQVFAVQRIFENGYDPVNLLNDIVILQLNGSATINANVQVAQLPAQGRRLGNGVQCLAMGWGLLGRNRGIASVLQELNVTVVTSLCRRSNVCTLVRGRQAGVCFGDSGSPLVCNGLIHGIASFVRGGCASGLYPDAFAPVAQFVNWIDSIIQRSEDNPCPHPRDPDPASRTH
Source text: as §1

The target of a further test is h plasma kallikrein (Homo sapiens, UniProt P03952). Put plainly: protease selectivity panel, enzyme activity assay. The conditions noted are these: 1 h pre-incubation RT. Type of test: biochemical.
Sequence of h plasma kallikrein (P03952 20-638): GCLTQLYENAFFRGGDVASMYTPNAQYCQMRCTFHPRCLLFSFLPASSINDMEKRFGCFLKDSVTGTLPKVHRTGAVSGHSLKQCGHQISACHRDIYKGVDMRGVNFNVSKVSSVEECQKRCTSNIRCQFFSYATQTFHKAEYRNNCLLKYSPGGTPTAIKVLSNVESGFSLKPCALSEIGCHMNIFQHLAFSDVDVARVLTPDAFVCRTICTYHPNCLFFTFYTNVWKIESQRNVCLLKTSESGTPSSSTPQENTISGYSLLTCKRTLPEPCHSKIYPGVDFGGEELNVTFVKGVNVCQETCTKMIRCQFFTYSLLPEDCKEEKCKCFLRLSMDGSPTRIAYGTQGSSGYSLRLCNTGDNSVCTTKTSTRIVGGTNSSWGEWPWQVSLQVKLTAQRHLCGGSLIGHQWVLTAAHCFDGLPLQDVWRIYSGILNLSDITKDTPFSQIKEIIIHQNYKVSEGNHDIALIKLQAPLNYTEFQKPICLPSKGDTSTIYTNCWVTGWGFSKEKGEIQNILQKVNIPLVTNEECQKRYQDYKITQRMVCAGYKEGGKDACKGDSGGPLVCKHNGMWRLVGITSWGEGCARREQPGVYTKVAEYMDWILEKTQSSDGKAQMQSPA
Source text: as §1

A further test has as its target h proteinase 3 (Homo sapiens, UniProt P24158). Put plainly: protease selectivity panel, enzyme activity assay. It is filed as biochemical. The conditions noted are these: 1 h pre-incubation RT.
Source text: as §1

Another test addresses h chymotrypsin. The test is described as follows: protease selectivity panel, enzyme activity assay. It is filed as biochemical, human. The settings on record: 1 h pre-incubation RT.
Source text: as §1

A further test deals with h pancreatic elastase. Put plainly: protease selectivity panel, enzyme activity assay. The settings on record: 1 h pre-incubation RT. It is filed as biochemical, human.
Source text: as §1

For test [1], the system named is trypsin activity in rat pancreas. The test is described as follows: in vivo optical imaging of activatable probe signal in pancreas, caerulein-injection pancreatitis model. The conditions noted are these: Camostat 300 mg/kg orally; vs untreated caerulein animals; P<0.001. The procedure: 280–320 g female Sprague Dawley rats were received from Charles Rivers Laboratory. Animals were maintained in a facility with a controlled temperature (21–24°C) and lighting (12∶12 h light: dark cycle). Animals were placed on a chlorophyll-free diet (Harlan TK2916) 10 days prior and for the duration of the imaging study to reduce the amount of autofluorescence and had free access to drinking water. One day prior to the experiment, animals were shaved at the abdomen for imaging studies. The pancreatitis model was induced by hyperstimulation with the cholecystokinin (CCK) analog caerulein (Sigma-Aldrich, St. Louis, MO). […]
(§2) In vivo optical imaging studies were conducted using a spectral imaging system, Maestro (Perkin Elmer, Boston, MA). […] Animals were imaged before the start of the study for background/autofluorescence, and at 20 minutes after the mPEG-PL-Cy5.5 probe administration for basal increase in fluorescence due to probe administration. […]
Region of the pancreas and liver were determined and defined from whole body clean images acquired after sacrificing the animals, and used on all corresponding in vivo images in the same animal. Fluorescent intensity at various time points from the same animal were normalized by fluorescence intensity determined before the start of the caerulein insult and the change in signal intensity was then plotted as a function of time.

Test [2] has the same test system. Put plainly: ex vivo fluorescence imaging of excised pancreas (total signal intensity of activated probe). Type of test: in vivo. The conditions noted are these: Camostat 300 mg/kg orally; vs untreated animals; P<0.01. The procedure:
280–320 g female Sprague Dawley rats were received from Charles Rivers Laboratory. Animals were maintained in a facility with a controlled temperature (21–24°C) and lighting (12∶12 h light: dark cycle). Animals were placed on a chlorophyll-free diet (Harlan TK2916) 10 days prior and for the duration of the imaging study to reduce the amount of autofluorescence and had free access to drinking water. One day prior to the experiment, animals were shaved at the abdomen for imaging studies. The pancreatitis model was induced by hyperstimulation with the cholecystokinin (CCK) analog caerulein (Sigma-Aldrich, St. Louis, MO). […] For studies with Novartis166 and Novartis848, varying concentrations, in a solution, were administered intraperitonealy (IP) only once, one hour before caerulein administration. Self-quenched protease activatable mPEG-PL-Cy5.5 probe was administered to all animals via the tail vein at a dose of 80 nmol/kg 40 minutes prior to the start of caerulein administration for measuring the amount of activated trypsin in the pancreas. […]
as §2

For test [3], the system named is rat caerulein-injection pancreatitis model. The test is described as follows: in vivo edema imaging with blood pool agent Angiosense 680. The settings on record: Camostat 300 mg/kg orally; three caerulein doses SC.
The test system of test [4] is trypsin. Put plainly: assessment of trypsin concentration in pancreas extracts. It is filed as in vivo, rat. The conditions noted are these: Camostat 300 mg/kg orally; vs untreated saline animals. As to the method:
The pancreas was removed from the euthanized animals, weighted and transferred into Dispomix tubes (Miltenyi Biotec, Bergisch Gladbach, Germany). After the addition of ice-cold PBS buffer (1 µl per […]), the pancreas was homogenized with a gentleMACS™ Dissociator (Miltenyi Biotec, Bergisch Gladbach, Germany). The homogenate was centrifuged at 4°C and 20,000 g for 10 min. The supernatant was stored at −20°C. The activity assay was performed at room temperature in 384-well plates in a total assay volume of 20 µl per well. For fluorescence quantification a Safire2 (Tecan, Maennedorf, Switzerland) instrument was used with fluorescence excitation and emission wavelengths of 485 nm and 535 nm, respectively. 10 µl of dilutions of extracts (typical range: 1∶500 to 1∶2,000) were transferred to 384 well assay plates. […] The enzymatic activity in the pancreatic extract was obtained from the linear progression curves and determined after one hour. Signal-to-background (S/B) values within the linear range of the assay signal were selected to calculate the trypsin concentrations of the extract analyzed. […] The amount of trypsin was calculated by transforming S/B levels obtained in the activity assay of extract dilutions fulfilling initial enzyme velocity criteria into trypsin concentration values via a calibration curve using recombinant rat trypsin S1-94.

Test [5] deals with trypsin. Put plainly: mPEG-PL-Cy5.5 probe activation by pancreatic enzymes with or without SPINK1. The conditions noted are these: 0.2 µM probe, 100 nM enzyme, 1 µM SPINK1. Type of test: biochemical. As to the method:
All enzyme assays were conducted in 384-well plates with a final substrate ( = mPEG-PL-Cy5.5 probe) concentration of 0.2 µM diluted in the appropriate assay buffer in a final assay volume of 25 µl. Enzyme and, in cases where applied, SPINK-1 (final assay concentration: 1 µM) were pre-incubated for one hour at room temperature. Subsequently substrate was added and incubated for 3 h at 37°C prior to measurement. All enzymes were either commercially obtained or prepared as described previously, [17], [18], [19].
Enzyme, SPINK-1 and substrate solutions were transferred to 384-well plates by means of a CyBi Well pipettor (CyBio, Jena, Germany). Plate measurements were conducted by the means of a Safire2 microplate reader (TECAN, Maennedorf, Switzerland) and wavelengths of 680 nm and 700 nm were taken for fluorescence excitation and emission acquisition, respectively. The bandwidths were set to 10 nm in both the excitation and the emission path. The fluorescence in each well was excited by three flashes per measurement.

The term IC50 denotes the concentration needed to halve the response being measured.

Sequence of h factor XIa (P03951 388-625 limits assumed): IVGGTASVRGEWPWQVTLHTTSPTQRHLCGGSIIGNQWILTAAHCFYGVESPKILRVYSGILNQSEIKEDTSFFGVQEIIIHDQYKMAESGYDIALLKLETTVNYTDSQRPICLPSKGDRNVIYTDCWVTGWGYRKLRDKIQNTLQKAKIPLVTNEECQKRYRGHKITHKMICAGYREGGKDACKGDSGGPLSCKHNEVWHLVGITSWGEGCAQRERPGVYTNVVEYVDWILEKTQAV
Sequence of h cathepsin K (P43235 115-329): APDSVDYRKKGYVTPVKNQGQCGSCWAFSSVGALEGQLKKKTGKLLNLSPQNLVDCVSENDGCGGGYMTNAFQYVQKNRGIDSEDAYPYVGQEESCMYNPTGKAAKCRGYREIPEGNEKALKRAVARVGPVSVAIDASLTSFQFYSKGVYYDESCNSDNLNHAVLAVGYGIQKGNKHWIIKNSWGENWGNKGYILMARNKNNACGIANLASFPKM
Sequence of h chymase (P23946 22-247): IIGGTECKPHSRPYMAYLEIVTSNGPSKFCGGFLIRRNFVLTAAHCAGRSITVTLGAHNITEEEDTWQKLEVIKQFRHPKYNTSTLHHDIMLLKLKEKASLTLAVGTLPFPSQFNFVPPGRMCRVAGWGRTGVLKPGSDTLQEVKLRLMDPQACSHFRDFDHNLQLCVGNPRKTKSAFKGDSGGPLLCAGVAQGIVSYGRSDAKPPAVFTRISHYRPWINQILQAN
Sequence of h cathepsin S (P25774 115-331): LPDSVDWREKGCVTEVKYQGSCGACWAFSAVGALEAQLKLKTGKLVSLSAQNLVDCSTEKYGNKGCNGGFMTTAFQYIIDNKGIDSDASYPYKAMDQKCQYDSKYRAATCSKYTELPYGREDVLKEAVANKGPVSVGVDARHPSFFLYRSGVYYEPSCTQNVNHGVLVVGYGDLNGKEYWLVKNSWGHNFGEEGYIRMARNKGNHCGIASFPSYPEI
Sequence of h proteinase 3 (P24158 28-256): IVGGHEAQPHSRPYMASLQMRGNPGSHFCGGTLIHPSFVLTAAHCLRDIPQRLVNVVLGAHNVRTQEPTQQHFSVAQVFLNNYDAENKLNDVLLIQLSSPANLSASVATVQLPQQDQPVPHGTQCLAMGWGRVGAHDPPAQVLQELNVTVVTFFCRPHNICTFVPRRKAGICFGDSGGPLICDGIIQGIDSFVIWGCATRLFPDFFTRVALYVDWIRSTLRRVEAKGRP

In the case of `CN(C)C(=O)COC(=O)Cc1ccc(OC(=O)c2ccc(NC(=N)N)cc2)cc1` [Camostat], the IC50 is more than 50 µM against h cathepsin B; more than 50 µM against h cathepsin C; 44.6 µM at h cathepsin G; more than 50 µM against h cathepsin K; more than 50 µM against h cathepsin L; more than 50 µM against h cathepsin S. In addition, the half-maximal inhibitory concentration (IC50) was 0.0028 µM at h cationic trypsin; more than 50 µM against h chymase; 0.531 µM on h factor VIIa; 8 µM against h factor XIIa; 0.008 µM against h factor XIa; 6.6 µM at h factor Xa. Also, the concentration for half-maximal inhibition (IC50) against h kallikrein 1 amounted to 72.4 µM; at h kallikrein 5, 0.1 µM; against h kallikrein 7 it was 41.5 µM; on h matriptase, 0.0065 µM; against h neutrophil elastase, 91.4 µM; on h plasma kallikrein, 0.002 µM. Besides, the IC50 against h proteinase 3 is more than 50 µM; on h chymotrypsin, 12.2 µM; at h pancreatic elastase it was more than 50 µM. Further, the “in vivo mPEG-PL-Cy5.5 probe activation in pancreas” value in test [1] was “reduced probe activation”. In addition, in test [2], the “probe activation in dissected pancreas (ex vivo)” value is “suppressed”. Moreover, the “Angiosense 680 signal in pancreas (edema imaging)” value in [3] is reported as “no signal enhancement”. Further, in the test with trypsin [4], the “amount of enzymatically active trypsin in pancreas” value is reported as “significant reduction in the amount of active trypsin”.

On to “SPINK1: highly specific trypsin inhibiting protein; endogenous trypsin inhibitor Kazal type 1 (DSLGREAKCYNELNGCTKIYDPVCGTDGNTYPNECVLCFENRKRQTSILIQKSGPC; UniProt P00995 24-79, looked up)”, for which the “protease activation of mPEG-PL-Cy5.5 probe by trypsin in the presence of SPINK1” value in the test with trypsin [5] is listed as “suppressed to background levels”.
